Source: patent US20240116985A1, “STAPLED PEPTIDES AND METHODS THEREOF” (priority 2020, published 2024)

Key:
[1] = biological target: T1, full-length B-Catenin (Uniprot ID P35222) (Homo sapiens, UniProt P35222); assay: Alphascreen binding assay (beta-catenin / biotin-TCF4 10-53)
T1 construct: 65 nM full-length B-Catenin (Uniprot ID P35222)
T1 sequence (P35222 1-781): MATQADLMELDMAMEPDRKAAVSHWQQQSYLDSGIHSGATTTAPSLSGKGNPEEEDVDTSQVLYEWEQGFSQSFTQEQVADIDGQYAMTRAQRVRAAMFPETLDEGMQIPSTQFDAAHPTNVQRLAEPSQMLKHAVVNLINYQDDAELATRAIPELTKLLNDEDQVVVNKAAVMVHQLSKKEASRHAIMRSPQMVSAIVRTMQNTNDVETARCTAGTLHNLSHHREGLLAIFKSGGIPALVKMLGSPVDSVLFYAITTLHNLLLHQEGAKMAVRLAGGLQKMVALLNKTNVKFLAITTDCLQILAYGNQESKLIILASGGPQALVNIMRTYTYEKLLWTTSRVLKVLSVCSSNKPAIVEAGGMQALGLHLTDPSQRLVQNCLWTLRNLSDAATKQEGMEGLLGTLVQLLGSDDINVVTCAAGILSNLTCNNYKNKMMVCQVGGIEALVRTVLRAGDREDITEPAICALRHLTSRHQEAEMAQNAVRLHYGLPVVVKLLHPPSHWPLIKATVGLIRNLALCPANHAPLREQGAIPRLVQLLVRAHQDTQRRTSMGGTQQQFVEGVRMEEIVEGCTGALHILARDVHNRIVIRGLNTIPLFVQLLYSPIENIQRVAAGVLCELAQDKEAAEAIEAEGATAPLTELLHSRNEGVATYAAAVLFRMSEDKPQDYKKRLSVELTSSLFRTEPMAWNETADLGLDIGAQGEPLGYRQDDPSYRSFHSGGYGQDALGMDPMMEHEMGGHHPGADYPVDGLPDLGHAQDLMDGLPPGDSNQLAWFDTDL
How it was run: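 Final concentrations: 65 nM full-length human β-catenin plus 10 nM biotin-TCF4(10-53) peptide, test peptide 3-fold from 10 uM to 5 nM, preincubated 15 min at 20 °C in Tris pH 8.0/250 mM NaCl buffer. Nickel-chelate AlphaScreen donor/acceptor beads then added for 60 min in the dark; duplicate reads fitted to 1:1 binding model with Hill slope.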

CHI Log D procedure = type: physicochemical; conditions: for CHI Log D: pH 7.4; for chromatographic logD: pH 7.4, CHI Log D

Structure (SMILES) | EC50 [1] | CHI Log D (CHI Log D procedure) | chromatographic logD (CHI Log D procedure)
CC(=O)N1CCC[C@]12CC=CCCCC1(CCCC=CCCCCCC[C@@](C)(C(=O)N[C@@H](Cc3ccccc3)C(=O)N[C@@H](CC3CNc4ccccc43)C(=O)N[C@@H](CCC(N)=O)C(N)=O)NC(=O)[C@H](C(C)C)NC(=O)[C@H](Cc3ccccc3)NC(=O)[C@H](C)NC(=O)[C@H](C)NC(=O)[C@H](CCC(=O)O)NC(=O)[C@H](CC(=O)O)NC1=O)NC(=O)[C@H](C)NC(=O)[C@H](CC(=O)O)NC2=O (stereo partly drawn) [I-168, Ac-PL3-Asp-Ala-B5-Asp-Glu-Ala-Ala-Phe-Val-S8-Phe-H2Trp-Gln-NH2] | 5640 nM | 1.942 | 
CC(=O)N1CCC[C@]12CC=CCCCC1(CCCC=CCCCCCC[C@@](C)(C(=O)N[C@@H](Cc3ccccc3)C(=O)N[C@@H](Cc3c[nH]c4ccc(C(F)(F)F)cc34)C(=O)N[C@@H](CCC(N)=O)C(N)=O)NC(=O)[C@H](C(C)C)NC(=O)[C@H](Cc3ccccc3)NC(=O)[C@H](C)NC(=O)[C@H](C)NC(=O)[C@H](CCC(=O)O)NC(=O)[C@H](CC(=O)O)NC1=O)NC(=O)[C@H](C)NC(=O)[C@H](CC(=O)O)NC2=O (stereo partly drawn) [I-169, Ac-PL3-Asp-Ala-B5-Asp-Glu-Ala-Ala-Phe-Val-S8-Phe-5CF3W-Gln-NH2] | 9210 nM |  | 2.18
CC(=O)N1CCC[C@]12CC=CCCCC1(CCCC=CCCCCCC[C@@](C)(C(=O)N[C@@H](Cc3ccccc3)C(=O)N[C@@H](Cc3c[nH]c4ccc(C5CC5)cc34)C(=O)N[C@@H](CCC(N)=O)C(N)=O)NC(=O)[C@H](C(C)C)NC(=O)[C@H](Cc3ccccc3)NC(=O)[C@H](C)NC(=O)[C@H](C)NC(=O)[C@H](CCC(=O)O)NC(=O)[C@H](CC(=O)O)NC1=O)NC(=O)[C@H](C)NC(=O)[C@H](CC(=O)O)NC2=O (stereo partly drawn) [I-171, Ac-PL3-Asp-Ala-B5-Asp-Glu-Ala-Ala-Phe-Val-S8-Phe-5CpW-Gln-NH2] | 2070 nM | 2.204 | 
CC(=O)N1CCC[C@]12CC=CCCCC1(CCCC=CCCCCCC[C@@](C)(C(=O)N[C@@H](Cc3ccccc3)C(=O)N[C@@H](Cc3ccc4ccccc4c3)C(=O)N[C@@H](C)C(N)=O)NC(=O)[C@H](C)NC(=O)[C@H](Cc3ccc(F)c(F)c3)NC(=O)[C@H](C)NC(=O)[C@H](C)NC(=O)[C@H](CCC(=O)O)NC(=O)[C@H](CC(=O)O)NC1=O)NC(=O)[C@H](C)NC(=O)[C@H](CC(=O)O)NC2=O (stereo partly drawn) [I-185, Ac-PL3-Asp-Ala-B5-Asp-Glu-Ala-Ala-34FF-Ala-S8-Phe-2NapA-Ala-NH2] | 2660 nM |  | 2.3
CC(=O)N1CCC[C@]12CC=CCCCC1(CCCC=CCCCCCC[C@@](C)(C(=O)N[C@@H](Cc3ccccc3)C(=O)N[C@@H](Cc3c[nH]c4ccccc34)C(=O)N[C@@H](C)C(N)=O)NC(=O)[C@H](C)NC(=O)[C@H](Cc3ccccc3)NC(=O)[C@H](C)NC(=O)[C@H](C)NC(=O)[C@H](CCC(=O)O)NC(=O)[C@H](CC(=O)O)NC1=O)NC(=O)[C@H](C)NC(=O)[C@H](CC(=O)O)NC2=O (stereo partly drawn) [I-186, Ac-PL3-Asp-Ala-B5-Asp-Glu-Ala-Ala-Phe-Ala-S8-Phe-Trp-Ala-NH2] | 518 nM | 2.041 | 
CC(=O)N1CCC[C@]12CC=CCCCC1(CCCC=CCCCCCC[C@@](C)(C(=O)N[C@@H](Cc3ccccc3)C(=O)N[C@@H](Cc3c[nH]c4ccccc34)C(=O)N[C@@H](CCC(N)=O)C(N)=O)NC(=O)[C@H](C(C)C)NC(=O)[C@H](Cc3ccccc3)NC(=O)[C@H](C)NC(=O)[C@H](C)NC(=O)[C@H](CCC(=O)O)NC(=O)[C@H](CCc3ccccc3)NC1=O)NC(=O)[C@H](C)NC(=O)[C@H](CC(=O)O)NC2=O (stereo partly drawn) [I-197, Ac-PL3-Asp-Ala-B5-hPhe-Glu-Ala-Ala-Phe-Val-S8-Phe-Trp-Gln-NH2] | 6150 nM | 3.809 | 
CC(=O)N1CCC[C@]12CC=CCCCC1(CCCC=CCCCCCC[C@@](C)(C(=O)N[C@@H](Cc3ccccc3)C(=O)N[C@@H](Cc3c[nH]c4ccccc34)C(=O)N[C@@H](CCC(N)=O)C(N)=O)NC(=O)[C@H](C(C)C)NC(=O)[C@H](Cc3ccccc3)NC(=O)[C@H](C)NC(=O)[C@H](C)NC(=O)[C@H](CCC(=O)O)NC(=O)[C@H](CC(=O)O)NC1=O)NC(=O)[C@H](C)NC(=O)[C@H](CC(N)=O)NC2=O (stereo partly drawn) [I-199, Ac-PL3-Asn-Ala-B5-Asp-Glu-Ala-Ala-Phe-Val-S8-Phe-Trp-Gln-NH2] | 796 nM | 2.262 | 
CC(=O)N1CCC[C@]12CC=CCCCC1(CCCC=CCCCCCC[C@@](C)(C(=O)N[C@@H](Cc3ccccc3)C(=O)N[C@@H](Cc3c[nH]c4ccccc34)C(=O)N[C@@H](CCC(N)=O)C(N)=O)NC(=O)[C@H](C(C)C)NC(=O)[C@H](Cc3ccccc3)NC(=O)[C@H](C)NC(=O)[C@H](C)NC(=O)[C@H](CCC(=O)O)NC(=O)[C@H](CC(=O)O)NC1=O)NC(=O)[C@H](C)NC(=O)[C@H](CC(N)=O)NC2=O (stereo partly drawn) [I-200, Ac-PL3-Asn-Ala-B5-Asp-Glu-Ala-Ala-Phe-Val-S8-Phe-Trp-Gln-NH2] | 173 nM | 2.278 | 
CC(=O)N1CCC[C@]12CC=CCCCC1(CCCC=CCCCCCC[C@@](C)(C(=O)N[C@@H](Cc3ccccc3)C(=O)N[C@@H](Cc3c[nH]c4ccccc34)C(=O)N[C@@H](CCC(N)=O)C(N)=O)NC(=O)[C@H](C(C)C)NC(=O)[C@H](Cc3ccccc3)NC(=O)[C@H](C)NC(=O)[C@H](C)NC(=O)[C@H](CCC(=O)O)NC(=O)[C@H](CC(=O)O)NC1=O)NC(=O)[C@H](C)NC(=O)[C@H](Cc1ccccc1)NC2=O (stereo partly drawn) [I-201, Ac-PL3-Phe-Ala-B5-Asp-Glu-Ala-Ala-Phe-Val-S8-Phe-Trp-Gln-NH2] | 6160 nM |  | 2.94
CC(=O)N1CCC[C@]12CC=CCCCC1(CCCC=CCCCCCC[C@@](C)(C(=O)N[C@@H](Cc3ccccc3)C(=O)N[C@@H](Cc3c[nH]c4ccccc34)C(=O)N[C@@H](CCC(N)=O)C(N)=O)NC(=O)[C@H](C(C)C)NC(=O)[C@H](Cc3ccccc3)NC(=O)[C@H](C)NC(=O)[C@H](C)NC(=O)[C@H](CCC(=O)O)NC(=O)[C@H](Cc3c[nH]cn3)NC1=O)NC(=O)[C@H](C)NC(=O)[C@H](CC(=O)O)NC2=O (stereo partly drawn) [I-206, Ac-PL3-Asp-Ala-B5-His-Glu-Ala-Ala-Phe-Val-S8-Phe-Trp-Gln-NH2] | 2140 nM |  | 2.41
CC(=O)N1CCC[C@]12CC=CCCCC1(CCCC=CCCCCCC[C@@](C)(C(=O)N[C@@H](Cc3ccccc3)C(=O)N[C@@H](Cc3c[nH]c4ccccc34)C(=O)N[C@@H](CCC(N)=O)C(N)=O)NC(=O)[C@H](C(C)C)NC(=O)[C@H](Cc3cc(F)c(F)c(F)c3)NC(=O)[C@H](C)NC(=O)[C@H](C)NC(=O)[C@H](CCC(=O)O)NC(=O)[C@H](CC(=O)O)NC1=O)NC(=O)[C@H](C)NC(=O)[C@H](CC(=O)O)NC2=O (stereo partly drawn) [I-209, Ac-PL3-Asp-Ala-B5-Asp-Glu-Ala-Ala-345FF-Val-S8-Phe-Trp-Gln-NH2] | 1400 nM | 2.088 | 
CC(=O)N1CCC[C@]12CC=CCCCC1(CCCC=CCCCCCC[C@@](C)(C(=O)N[C@@H](Cc3ccccc3)C(=O)N[C@@H](Cc3c[nH]c4ccccc34)C(=O)N[C@@H](CCC(N)=O)C(N)=O)NC(=O)[C@H](C(C)C)NC(=O)[C@H](Cc3cc(F)c(F)c(F)c3)NC(=O)[C@H](C)NC(=O)[C@H](C)NC(=O)[C@H](CCC(=O)O)NC(=O)[C@H](CC(=O)O)NC1=O)NC(=O)[C@H](C)NC(=O)[C@H](CC(=O)O)NC2=O (stereo partly drawn) [I-210, Ac-PL3-Asp-Ala-B5-Asp-Glu-Ala-Ala-345FF-Val-S8-Phe-Trp-Gln-NH2] | 1400 nM | 2.088 | 
CC(=O)N1CCC[C@]12CC=CCCCC1(CCCC=CCCCCCC[C@@](C)(C(=O)N[C@@H](Cc3ccccc3)C(=O)N[C@@H](Cc3c[nH]c4ccccc34)C(=O)N[C@@H](CCC(N)=O)C(N)=O)NC(=O)[C@H](C(C)C)NC(=O)[C@H](Cc3cc(F)c(F)c(F)c3)NC(=O)[C@H](C)NC(=O)[C@H](C)NC(=O)[C@H](CCC(=O)O)NC(=O)[C@H](CC(=O)O)NC1=O)NC(=O)[C@H](C)NC(=O)[C@H](CC(=O)O)NC2=O (stereo partly drawn) [I-211, Ac-PL3-Asp-Ala-B5-Asp-Glu-Ala-Ala-345FF-Val-S8-Phe-Trp-Gln-NH2] | 367 nM | 2.101 | 
CC(=O)N1CCC[C@]12CC=CCCCC1(CCCC=CCCCCCC[C@@](C)(C(=O)N[C@@H](Cc3ccccc3)C(=O)N[C@@H](Cc3c[nH]c4ccccc34)C(=O)N[C@@H](CCC(N)=O)C(N)=O)NC(=O)[C@H](C(C)C)NC(=O)[C@H](Cc3cc(F)c(F)c(F)c3)NC(=O)[C@H](C)NC(=O)[C@H](C)NC(=O)[C@H](CCC(=O)O)NC(=O)[C@H](CC(=O)O)NC1=O)NC(=O)[C@H](C)NC(=O)[C@H](CC(=O)O)NC2=O (stereo partly drawn) [I-212, Ac-PL3-Asp-Ala-B5-Asp-Glu-Ala-Ala-345FF-Val-S8-Phe-Trp-Gln-NH2] | 367 nM | 2.101 | 
